Patent publication US20100286186A1, “NOVEL DICARBOXYLIC ACID LINKED AMINO ACID AND PEPTIDE PRODRUGS OF OPIOIDS AND USES THEREOF” (Shire LLC, priority 2009, published 2010)
“And” between values parts separate entries of the source, which are not always exact repeats. Equal values may be shown once. Marks after values point to notes of the source that are not given here.

Legend:
[1] = Bioavailability of oxycodone, codeine and dihydrocodeine from their succinyl valine ester prodrugs in the dog (oral gavage, two-way crossover); conditions: dogs, oral gavage; for T>50%Cmax of dihydrocodeine: 1 mg free base equivalents dihydrocodeine/kg; for T>50%Cmax of codeine: 1 mg free base equivalents codeine/kg
Experimental: The characteristics of the test animals are set out in Table 10, below.
Blood samples were taken at various times after administration and submitted to analysis for the parent drug and pro-drug using a validated LC-MS-MS assay. Pharmacokinetic parameters derived from the plasma analytical data were determined using Win Nonlin.

[2] = test system: gut motility in the rat; assay: Charcoal propulsion test of GI motility in the rat; assay type: in vivo; conditions: oral
Experimental: Test treatments were administered to groups of up to 10 rats fasted overnight prior to the test.
Test treatments were administered orally 60 minutes prior to a 2.0 mL oral dose of a 10% suspension of charcoal in 5% gum arabic. Thirty minutes after dosing with charcoal, the rats were sacrificed and the entire gastro-intestinal tract quickly and carefully removed. The distance the charcoal meal had traveled from the pyloric sphincter toward the caecum was measured and expressed as a percentage of both the total gut length and the length of the small intestine.

[3] = In vitro stability of dicarboxylate amino acid ester prodrugs in simulated gastric and intestinal juice, distilled water and pH 10 buffer (HPLC); conditions: for Simulated gastric fluid (pH 1.1): % remaining after 2 h/37° C.: pH 1.1, 2 h; for Distilled water (pH 5.9): % remaining after 2 h/20° C.: pH 5.9, 2 h; for Simulated intestinal fluid (pH 6.8): % remaining after 2 h/37° C.: pH 6.8, 2 h; for pH 10.0 buffer: % remaining after 2 h/20° C.: pH 10.0, 2 h
[4] = Stability of meptazinol dicarboxylate bridged amino acid prodrugs in simulated gastric and intestinal juice and pH 7.4 buffer; assay type: physicochemical; conditions: for 2 h stability in pH7.4 buffer (37° C.), Conversion to meptazinol: pH 7.4 buffer
Description: Initially the inherent chemical and biological stability of various dicarboxylate bridged amino acid prodrugs of meptazinol, was investigated under the conditions prevailing in the GI tract. Premature hydrolysis of the prodrug in the gut lumen prior to absorption would reduce the opportunity for transient protection of the drug during its passage though the liver and the desired reduction in first pass metabolism.
The remaining concentrations of the prodrug (and also drug released) were then assayed by HPLC. Additionally their chemical stability was evaluated in pH 7.4 buffer for 2 h 37° C.

[5] = Plasma pharmacokinetics of meptazinol dicarboxylate linked prodrugs after oral gavage to dogs; assay type: in vivo, dog; conditions: dog, 1 mg meptazinol base equivalents/kg; for systemic levels of meptazinol versus expected Cmax after the drug itself: oral gavage; for Dog Cmax (plasma meptazinol) / Dog Cmax (plasma prodrug levels, in brackets): oral gavage of prodrug; for Dog Cmax (plasma meptazinol): meptazinol level; for Dog Cmax (plasma prodrug levels, in brackets): prodrug level, BLQ = below 0.5 ng/mL
[6] = Plasma pharmacokinetics of meptazinol dicarboxylate linked prodrugs after oral gavage to cynomolgus monkeys; assay type: in vivo, cynomolgus monkey; conditions: 1 mg meptazinol base equivalents/kg; for Monkey Cmax (plasma meptazinol) / Monkey Cmax (plasma prodrug levels, in brackets): cynomolgus monkey, oral gavage of prodrug; for Monkey Cmax (plasma meptazinol): meptazinol level; for Monkey Cmax (plasma prodrug levels, in brackets): prodrug level, BLQ = below 0.5 ng/mL; for improvement in systemic levels of meptazinol: monkey, oral gavage
[7] = Comparative oral bioavailability of oxycodone from various dicarboxylate bridged amino acid prodrugs in dogs (nine-way crossover); assay type: in vivo, dog; conditions: 1 mg/kg oxycodone free base, mean (±sd)
[8] = Comparative pharmacokinetics of oxycodone in the cynomolgus monkey after oral administration; conditions: for T>50%Cmax of oxycodone: oral
[9] = simulated intestinal fluid, 2 h

COc1ccc2c3c1O[C@H]1[C@@H](OC(=O)CCC(=O)NC(C(=O)O)C(C)C)CCC4[C@@H](C2)N(C)CC[C@@]341 (stereo in doubt) [dihydrocodeine-[succinyl-(S)-valine]ester]
T>50%Cmax of dihydrocodeine ([1]; individual dogs 1-5): 3 h (2×) and 2 h and 1 h (2×)
T>50%Cmax of dihydrocodeine ([1]; median (n=5)): 2^a h
% change from vehicle-treated animals, small intestine ([2]; 10 mg/kg): −17.4%
% change from vehicle-treated animals, total gut length ([2]; 10 mg/kg): −16.6%
% change from vehicle-treated animals, small intestine ([2]; 30 mg/kg): −8.5%
% change from vehicle-treated animals, total gut length ([2]; 30 mg/kg): −8.5%
% change from vehicle-treated animals, small intestine ([2]; 100 mg/kg): −13.3%
% change from vehicle-treated animals, total gut length ([2]; 100 mg/kg): −12.9%
% change from vehicle-treated animals, small intestine ([2]; 300 mg/kg): −35.7%
% change from vehicle-treated animals, total gut length ([2]; 300 mg/kg): −35.3%
Simulated gastric fluid (pH 1.1): % remaining after 2 h/37° C. [3]: 100%
Distilled water (pH 5.9): % remaining after 2 h/20° C. [3]: 100%
Simulated intestinal fluid (pH 6.8): % remaining after 2 h/37° C. [3]: 100%
pH 10.0 buffer: % remaining after 2 h/20° C. [3]: 98%

COc1ccc2c3c1O[C@H]1[C@@H](O)C=C[C@H]4[C@@H](C2)N(C)CC[C@@]341.Cl [Codeine HCl, reference compound]
T>50%Cmax of codeine ([1]; individual dogs 1-5, HCl): 1.5 h (3×) and 0.5 h (2×)
T>50%Cmax of codeine ([1]; median (n=5)): 1.5^a h

COc1ccc2c3c1O[C@H]1[C@@H](OC(=O)CCC(=O)N[C@H](C(=O)O)C(C)C)C=CC4[C@@H](C2)N(C)CC[C@@]341 (stereo partly drawn) [Codeine-[succinyl-(S)-valine] ester, codeine-[succinyl-(S)-valine]ester]
T>50%Cmax of codeine ([1]; individual dogs 1-5): 2 h (4×) and 1 h
T>50%Cmax of codeine ([1]; median (n=5)): 2^a h
% change from vehicle-treated animals, small intestine ([2]; 10 mg/kg): −9.7%
% change from vehicle-treated animals, total gut length ([2]; 10 mg/kg): −9.3%
% change from vehicle-treated animals, small intestine ([2]; 30 mg/kg): −15.7%
% change from vehicle-treated animals, total gut length ([2]; 30 mg/kg): −15.1%
% change from vehicle-treated animals, small intestine ([2]; 100 mg/kg): −16.4%
% change from vehicle-treated animals, total gut length ([2]; 100 mg/kg): −15.6%
Simulated gastric fluid (pH 1.1): % remaining after 2 h/37° C. [3]: 99%
Distilled water (pH 5.9): % remaining after 2 h/20° C. [3]: 100%
Simulated intestinal fluid (pH 6.8): % remaining after 2 h/37° C. [3]: 98%
pH 10.0 buffer: % remaining after 2 h/20° C. [3]: 92%

CCC1(c2cccc(OC(=O)CC(C)(C)CC(=O)Nc3ccc(C(=O)O)cc3)c2)CCCCN(C)C1 (stereo not drawn) [Meptazinol [3,3-dimethyl-glutaryl-PABA]ester]
2 h stability in pH7.4 buffer (37° C.), Conversion to meptazinol ([4]; 2 h): 93%
1 h stability in simulated gastric fluid (37° C.), Conversion to meptazinol [4]: 1%
2 h stability in simulated intestinal fluid (37° C.), Conversion to meptazinol [4, 9]: 5%
systemic levels of meptazinol versus expected Cmax after the drug itself [5]: improved systemic levels of meptazinol
Dog Cmax (plasma meptazinol) [5]: 9.4 ng/mL
Dog Cmax (plasma prodrug levels, in brackets) [5]: 25 ng/mL
Monkey Cmax (plasma meptazinol) [6]: 1.3 ng/mL
Monkey Cmax (plasma prodrug levels, in brackets) [6]: BLQ
improvement in systemic levels of meptazinol [6]: not seen in the monkey

CCC1(c2cccc(OC(=O)C=CC(=O)Nc3ccc(C(=O)O)cc3)c2)CCCCN(C)C1 (stereo not drawn) [Meptazinol [fumaryl-PABA] ester]
2 h stability in pH7.4 buffer (37° C.), Conversion to meptazinol ([4]; 2 h): 47%
1 h stability in simulated gastric fluid (37° C.), Conversion to meptazinol [4]: 2%
2 h stability in simulated intestinal fluid (37° C.), Conversion to meptazinol [4, 9]: 6%
Dog Cmax (plasma meptazinol) [5]: 1.5 ng/mL
Dog Cmax (plasma prodrug levels, in brackets) [5]: BLQ
Monkey Cmax (plasma meptazinol) [6]: 1.4 ng/mL
Monkey Cmax (plasma prodrug levels, in brackets) [6]: BLQ

CCC1(c2cccc(OC(=O)CCCC(=O)Nc3ccc(C(=O)O)cc3)c2)CCCCN(C)C1 (stereo not drawn) [Meptazinol [glutaryl-PABA] ester]
2 h stability in pH7.4 buffer (37° C.), Conversion to meptazinol ([4]; 2 h): 80%
1 h stability in simulated gastric fluid (37° C.), Conversion to meptazinol [4]: 5%
2 h stability in simulated intestinal fluid (37° C.), Conversion to meptazinol [4, 9]: 6%
Dog Cmax (plasma meptazinol) [5]: 3.4 ng/mL
Dog Cmax (plasma prodrug levels, in brackets) [5]: 6.7 ng/mL
Monkey Cmax (plasma meptazinol) [6]: 1.5 ng/mL
Monkey Cmax (plasma prodrug levels, in brackets) [6]: 1.7 ng/mL

CCC1(c2cccc(OC(=O)C(C)(C)CC(=O)N[C@H](C(=O)O)C(C)C)c2)CCCCN(C)C1 (stereo partly drawn) [Meptazinol-[2,2-dimethylsuccinyl-(S)-valine] ester]
2 h stability in pH7.4 buffer (37° C.), Conversion to meptazinol ([4]; 2 h): 2%
2 h stability in simulated intestinal fluid (37° C.), Conversion to meptazinol [4, 9]: 3%
Dog Cmax (plasma meptazinol) [5]: 0.9 ng/mL
Dog Cmax (plasma prodrug levels, in brackets) [5]: 25 ng/mL
Monkey Cmax (plasma meptazinol) [6]: 0.4 ng/mL
Monkey Cmax (plasma prodrug levels, in brackets) [6]: 100 ng/mL

CCC1(c2cccc(OC(=O)CC(C)(C)CC(=O)NCC(=O)O)c2)CCCCN(C)C1 (stereo not drawn) [Meptazinol-[3,3-dimethylglutaryl-glycine] ester]
2 h stability in pH7.4 buffer (37° C.), Conversion to meptazinol ([4]; 2 h): 2%
1 h stability in simulated gastric fluid (37° C.), Conversion to meptazinol [4]: 4%
2 h stability in simulated intestinal fluid (37° C.), Conversion to meptazinol [4, 9]: 4%
Dog Cmax (plasma meptazinol) [5]: 0.5 ng/mL
Dog Cmax (plasma prodrug levels, in brackets) [5]: 29 ng/mL
Monkey Cmax (plasma meptazinol) [6]: 1.1 ng/mL
Monkey Cmax (plasma prodrug levels, in brackets) [6]: 18 ng/mL

CCC1(c2cccc(OC(=O)CCC(=O)N3CCC[C@H]3C(=O)O)c2)CCCCN(C)C1 (stereo partly drawn) [Meptazinol-[succinyl-(S)-proline] ester]
2 h stability in pH7.4 buffer (37° C.), Conversion to meptazinol ([4]; 2 h): 4%
1 h stability in simulated gastric fluid (37° C.), Conversion to meptazinol [4]: 4%
2 h stability in simulated intestinal fluid (37° C.), Conversion to meptazinol [4, 9]: 4%
Dog Cmax (plasma meptazinol) [5]: 0.7 ng/mL
Dog Cmax (plasma prodrug levels, in brackets) [5]: 36 ng/mL
Monkey Cmax (plasma meptazinol) [6]: 2.0 ng/mL
Monkey Cmax (plasma prodrug levels, in brackets) [6]: 16 ng/mL

COc1ccc2c3c1O[C@H]1C(OC(=O)CCCC(=O)N[C@@H](CC(C)C)C(=O)O)=CC[C@@]4(O)[C@@H](C2)N(C)CC[C@]314 [Oxycodone-Glutaryl-Leu Enol Ester, oxycodone-[glutaryl-(S)-leucine] enol ester]
T50% Cmax of oxycodone [7]: 3.4 (±0.7) h.
Cmax of intact prodrug ([8]; male cynomolgus monkeys, oral prodrug, 1 mg oxycodone free base equivalents/kg, individual monkeys 1-5): BLQ
T>50%Cmax of oxycodone ([8]; male cynomolgus monkeys, 1 mg oxycodone free base equivalents/kg, individual monkeys 1-5): 2.33 h and 2.40 h and 3.13 h and 4.66 h and 1.80 h
T>50%Cmax of oxycodone ([8]; male cynomolgus monkeys, 1 mg oxycodone free base equivalents/kg, mean (n=5)): 2.86 h
T>50%Cmax of oxycodone ([8]; male cynomolgus monkeys, 1 mg oxycodone free base equivalents/kg, mean (n=5), listed as OGLE): 2.9 h
prodrug levels in plasma ([8]; monkeys, oral prodrug): below the limit of quantification
Simulated gastric fluid (pH 1.1): % remaining after 2 h/37° C. [3]: 98%
Simulated intestinal fluid (pH 6.8): % remaining after 2 h/37° C. [3]: 79%

COc1ccc2c3c1O[C@H]1[C@@H](O)C=C[C@H]4[C@@H](C2)N(C)CC[C@@]341 [codeine, reference compound]
T>50%Cmax of codeine ([1]; median (n=5)): 1.2 h
delay of the passage of the charcoal meal (gut motility) ([2]; 30 mg/kg or equimolar dose): greater than 30%

CCC1(c2cccc(OC(=O)c3ccccc3C(=O)N[C@@H](Cc3ccccc3)C(=O)O)c2)CCCCN(C)C1.O=C(O)C(F)(F)F (stereo partly drawn) [meptazinol [phthalyl-(S)-phenylalanine]ester trifluoroacetate]
2 h stability in pH7.4 buffer (37° C.), Conversion to meptazinol ([4]; 2 h): 72%
1 h stability in simulated gastric fluid (37° C.), Conversion to meptazinol [4]: 3%
2 h stability in simulated intestinal fluid (37° C.), Conversion to meptazinol [4, 9]: 30%
degradation in 2 h in simulated intestinal fluid ([4]; simulated intestinal fluid, 2 h, 37° C.): ~30%
systemic levels of meptazinol versus expected Cmax after the drug itself [5]: improved systemic levels of meptazinol
Dog Cmax (plasma meptazinol) [5]: 9.1 ng/mL
Dog Cmax (plasma prodrug levels, in brackets) [5]: 71 ng/mL
Monkey Cmax (plasma prodrug levels, in brackets) [6]: BLQ
improvement in systemic levels of meptazinol [6]: not seen in the monkey
